# Measurements taken from patent publication US9512486B2, “Materials, methods, and systems for treating cancer” (The Institute of Cancer Research: Royal Cancer Hospital, priority 2012, dated 2016).
# Tests used:
# Type in all cases: cell-based
# [1] = system: CAL51 cells transfected with siRNA directed against RAD51D; assay: Olaparib sensitivity after RAD51D silencing, cell viability (Cell TitreGlo), CAL51; settings: siRAD51D vs siCONTROL and siBRCA2, olaparib titration for 7 days, FIG. 3A
# Excerpt: (§1) This method has clinical utility both for individuals with cancer and their relatives. Cancer patients with RAD51D mutations may benefit from specific therapies such as Poly (ADP-Ribose) Polymerase (PARP) inhibitors, which have shown efficacy in patients with impairment of HR due to mutations in BRCA1 or BRCA2. To investigate this we used RNA interference (RNAi) and assessed the relationship between RAD51D loss of function and the sensitivity of tumor cells to a clinical PARP inhibitor, olaparib (AstraZeneca) 4-[(3-[(4-cyclopropylcarbonyl)piperazin-4-yl]carbonyl)-4-fluorophenyl]methyl(2H)phthalazin-1-one. Referring now to FIG. 3. The effect of RAD51D silencing on olaparib sensitivity. CAL51 (FIG. 3A) or MCF7 (FIG. 3B) cells were transfected with siCONTROL, siRNA directed against RAD51D or siRNA directed against BRCA2 and then treated with olaparib for 7 days before assaying for cell viability. Wild-type CHO cells or CHO cells mutated in RAD51D were treated with olaparib for 7 days before assaying for cell viability (FIG. 3C).
# (§2) Non-silencing BRCA2 and RAD51D SIGENOME siRNAs (Dharmacon, Lafayette, Colo., USA) were used. […] After 7 days continuous culture, cell viability was estimated using Cell TitreGlo reagent (Promega Madison, Wis., USA) and surviving fractions calculated as previously described.
# [2] = system: MCF7 cells transfected with siRNA directed against RAD51D; assay: Olaparib sensitivity after RAD51D silencing, cell viability (Cell TitreGlo), MCF7; settings: siRAD51D vs siCONTROL and siBRCA2, olaparib titration for 7 days, FIG. 3B
# Excerpt: as §1, §2
# [3] = system: CHO cells mutated in RAD51D; assay: Olaparib sensitivity of wild-type versus RAD51D mutated CHO cells, cell viability; settings: CHO RAD51D WT (51D1.3 clone) vs RAD51D deficient CHO (51D1 clone), olaparib for 7 days, FIG. 3C
# Excerpt: as §1, §2
smiles,measurement,setting,value
"O=C(c1cc(Cc2n[nH]c(=O)c3ccccc23)ccc1F)N1CCN(C(=O)C2CC2)CC1 [olaparib, 4-[(3-[(4-cyclopropylcarbonyl)piperazin-4-yl]carbonyl)-4-fluorophenyl]methyl(2H)phthalazin-1-one]",olaparib sensitivity (Surviving Fraction),[1],olaparib sensitivity of a magnitude similar to that achieved using silencing of BRCA2
same,olaparib sensitivity (Surviving Fraction),[2],olaparib sensitivity of a magnitude similar to that achieved using silencing of BRCA2
same,olaparib sensitivity (Surviving Fraction),[3],RAD51D selective effect
same,olaparib sensitivity (Surviving Fraction),[3]; listed as Olaparib,particularly effective in causing the death of cells that have an inactivating mutation of RAD51D
